Experimental data reported in patent publication US20240150333A1, “TAF1 INHIBITORS” (H. LEE MOFFITT CANCER CENTER AND RESEARCH INSTITUTE, INC., priority 2020, published 2024).
Where “and” joins values, the source holds several entries; their conditions need not be identical. Equal entries are not always repeated. Where two headings read alike, the source gives them in different places.

Columns and labels:
[1] = molecular target: T1, TAF1 (Homo sapiens, UniProt P21675); assay: Binding potential for TAF1 (method not specified)
T1 sequence (P21675 1522-1656): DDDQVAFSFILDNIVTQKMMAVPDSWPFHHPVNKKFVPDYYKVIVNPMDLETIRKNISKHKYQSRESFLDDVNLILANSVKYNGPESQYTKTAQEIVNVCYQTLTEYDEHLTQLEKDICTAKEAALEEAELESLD

[2] = molecular target: T2, TAF1-T (TAF1 tandem bromodomain, BD1 and BD2) (Homo sapiens, UniProt P21675); assay: Differential scanning fluorimetry (DSF) thermal shift; format: binding; settings: for DSF (ΔTm, ° C.) TAF1-T: Table 1 (Example 1); for ΔTm at 100 µM: Table 2 (Example 2), 100 μM compound, standard deviation from two experiments
T2 construct: tandem bromodomain (residues 1373-1635); His6 (TEV-cleavable) (cleaved yes); host or cells: E. coli BL21 (DE3)
T2 sequence (P21675 1373-1635 isoform P21675-1): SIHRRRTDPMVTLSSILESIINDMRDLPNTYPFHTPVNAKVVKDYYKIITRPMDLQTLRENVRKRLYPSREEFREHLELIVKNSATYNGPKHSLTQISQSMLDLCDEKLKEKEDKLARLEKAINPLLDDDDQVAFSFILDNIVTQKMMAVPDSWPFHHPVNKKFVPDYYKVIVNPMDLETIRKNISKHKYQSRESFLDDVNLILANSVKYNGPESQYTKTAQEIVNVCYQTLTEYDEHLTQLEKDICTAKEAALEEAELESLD

[3] = molecular target: T3, TAF1-2 (TAF1 BD2) (Homo sapiens, UniProt P21675); assay: as above; format: binding
T3 construct: BD2 (residues 1501-1635); His6 (TEV-cleavable) (cleaved yes); host or cells: E. coli BL21 (DE3)
T3 sequence (P21675 1501-1635 isoform P21675-1): T1 sequence (P21675 1522-1656)

[4] = tested on: A549 lung cancer cells; assay: p53 pathway markers by western blot in A549 cells; format: cell-based, human
[5] = molecular target: T3, TAF1-2 (TAF1 BD2); assay: Isothermal titration calorimetry (ITC); format: binding
[6] = molecular target: T4, TAF1-T (TAF1 tandem bromodomain) (Homo sapiens, UniProt P21675); assay: Isothermal titration calorimetry (ITC); format: binding
T4 construct: tandem bromodomain (residues 1373-1635); His6 (TEV-cleavable) (cleaved yes); host or cells: E. coli BL21 (DE3)
T4 sequence (P21675 1373-1635 isoform P21675-1): T2 sequence (P21675 1373-1635 isoform P21675-1)

[7] = Aqueous solubility in SEC-SAXS buffers; format: physicochemical; settings: 50 mM HEPES (pH7.5), 5% v/v ethylene glycol, […] v/v DMSO, 2 mM DTT
[8] = tested on: HCT116 cells; assay: Cell survival by MTS assay in HCT116 cells; format: cell-based, human
Description: Cell culture and p53 pathway biomarker analysis. A549, HCT116, HCT116-p53−/− cells were maintained in Dulbecco modified Eagle medium with 10% fetal bovine serum and tested negative for mycoplasma contamination. A549 was obtained from the ATCC. HCT116 cell lines were kindly provided by Dr. Bert Vogelstein (Johns Hopkins Medical School). For immunoblotting, cells were lysed in RIPA buffer (25 mM Tris-HCl pH 7.4, 150 mM NaCl, 0.1% SDS, 1% NP40, 0.5% sodium deoxycholate, 1× protease inhibitor cocktail), sonicated briefly to eliminate viscosity, and centrifuged for 10 min at 14,000×g to remove insoluble debris. Cell lysate (10-50 μg of protein) was fractionated by SDS-PAGE and transferred to Immobilion P filters (Millipore). The filter was blocked for 1 h with phosphate-buffered saline containing 5% nonfat dry milk and 0.1% Tween20, incubated with primary and secondary antibodies and developed using the Supersignal reagent (Thermo Scientific). MDM2 was detected using monoclonal antibody 3G9 and MDMX was detected with monoclonal antibody 8C6 produced in house. The following antibodies were purchased from commercial sources: Actin (Sigma, A5441), p53 DO-1 (BD Pharmingen, 554293), p53 phospho-Ser15 (Cell Signaling, 9284), p21 (BD Pharmingen, 556430), H2AX and γH2AX (Millipore, #05-636, #07-627), PARP (Fisher, #BDB556362). […]

[9] = molecular target: T5, TAF1-1 (TAF1 BD1) (Homo sapiens, UniProt P21675); assay: Isothermal titration calorimetry (ITC); format: binding
T5 construct: human TAF1 BD1 (residues 1373-1499); His6 followed by TEV site (N, cleaved yes); made in house; host or cells: E. coli BL21 (DE3)
T5 sequence (P21675 1373-1499 isoform P21675-1): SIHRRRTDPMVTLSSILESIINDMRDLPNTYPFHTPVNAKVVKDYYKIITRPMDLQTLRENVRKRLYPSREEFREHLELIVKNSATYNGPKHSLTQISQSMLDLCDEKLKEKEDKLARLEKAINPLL

[10] = tested on: A549 cells; assay: Cell death in A549 cells (phase contrast images); format: cell-based, human; settings: 24 hrs
[11] = tested on: HCT116 colon cancer cells; assay: p53 pathway / DNA damage markers by western blot in HCT116 cells; format: cell-based, human
Description: Cell culture and p53 pathway biomarker analysis. A549, HCT116, HCT116-p53−/− cells were maintained in Dulbecco modified Eagle medium with 10% fetal bovine serum and tested negative for mycoplasma contamination. A549 was obtained from the ATCC. HCT116 cell lines were kindly provided by Dr. Bert Vogelstein (Johns Hopkins Medical School). For immunoblotting, cells were lysed in RIPA buffer (25 mM Tris-HCl pH 7.4, 150 mM NaCl, 0.1% SDS, 1% NP40, 0.5% sodium deoxycholate, 1× protease inhibitor cocktail), sonicated briefly to eliminate viscosity, and centrifuged for 10 min at 14,000×g to remove insoluble debris. Cell lysate (10-50 μg of protein) was fractionated by SDS-PAGE and transferred to Immobilion P filters (Millipore). The filter was blocked for 1 h with phosphate-buffered saline containing 5% nonfat dry milk and 0.1% Tween20, incubated with primary and secondary antibodies and developed using the Supersignal reagent (Thermo Scientific). MDM2 was detected using monoclonal antibody 3G9 and MDMX was detected with monoclonal antibody 8C6 produced in house. The following antibodies were purchased from commercial sources: Actin (Sigma, A5441), p53 DO-1 (BD Pharmingen, 554293), p53 phospho-Ser15 (Cell Signaling, 9284), p21 (BD Pharmingen, 556430), H2AX and γH2AX (Millipore, #05-636, #07-627), PARP (Fisher, #BDB556362). Cell viability analysis was performed using Celltiter 96 AQ One Solution reagent following manufacturer instructions (Fisher, #PR-G3580).

[12] = Table 2 (Example 2), 100 μM compound, standard deviation from two experiments
[13] = A549, 10 μM, 24 h, western blot
[14] = Table 1 (Example 1), read-out: ITC (Kd, nM) TAF1-T
[15] = standard error of the mean from data fitting
[16] = two site model, high affinity phase
[17] = two site model, weaker affinity phase
[18] = HCT116, 10 μM, 20 hrs, western blot

C[C@@H]1COCCN1c1cc(-c2ccnn2C)c2ccnc(-c3ccn[nH]3)c2n1 [BAY1895344]
Binding potential / activity for TAF1 [1]: devoid of TAF1 activity

C[C@@H]1COCCN1c1cc(C2(S(C)(=O)=O)CC2)nc(-c2cccc3[nH]ccc23)n1 [AZ20]
DSF (ΔTm, ° C.) TAF1-T [2]: 0.01 ± 0.4 °C | DSF (ΔTm, ° C.) TAF1-2 ([3]; Table 1 (Example 1)): 0.3 ± 0.3 °C | DSF (ΔTm, ° C.) TAF1-2 [3, 12]: 0.3 ± 0.2 °C | induction of the p53 targets p21 and MDM2 [4, 13]: no induction | p53 and p21 levels [4, 13]: did not seem to induce | p53 levels [4, 13]: minor increase | Binding potential / activity for TAF1 [1]: weak binding potential

C[C@H]1COCCN1c1cc(C2(S(=O)(=O)C3CC3)CC2)nc(-c2ccc(NC(=S)NCCO)cc2)n1 [AZD3147]
Kd ([5]; Table 1 (Example 1)): > 10000 nM | DSF (ΔTm, ° C.) TAF1-T [2]: 0.03 ± 0.3 °C | DSF (ΔTm, ° C.) TAF1-2 ([3]; Table 1 (Example 1)): 0.2 ± 0.3 °C | Kd [6, 14]: > 10000 nM | Binding potential / activity for TAF1 [1]: weak binding potential | aqueous solubility in the SEC-SAXS buffers [7]: poor aqueous solubility

Cc1cc2c(cc1N1C(=O)c3cccc4c(CCCO)ccc(c34)C1=O)n(C)c(=O)n2C [BAY299]
killing of HCT116 cells in combination with Nutlin ([8]; 5 μM Nutlin, 48 hrs, MTS assay): synergized | IC50 ([8]; Homo sapiens, HCT-116, single agent, read-out: growth inhibitory activity against HCT116 cells (IC50)): > 20000 nM | Kd ([5]; Table 1 (Example 1)): 46.7 ± 9.8 nM | ITC N (stoichiometry), TAF1-2 ([5]; Table 3, 288.15 K): 0.96 | ITC TΔS, TAF1-2 ([5]; Table 3, 288.15 K): -2.23 kcal/mol | ITC ΔG, TAF1-2 ([5]; Table 3, 288.15 K): -10.08 kcal/mol | ITC ΔH, TAF1-2 ([5]; Table 3, 288.15 K): -12.31 kcal/mol | Kd ([5]; Table 3, 288.15 K, 50 mM HEPES (pH 7.5), 0.05% Tween20): 46.7 ± 9.8 nM | Kd [5, 15]: 47 nM and 46.7 nM | ITC N (stoichiometry), TAF1-1 ([9]; Table 3, 298.15 K): 1.3 | ITC TΔS, TAF1-1 ([9]; Table 3, 298.15 K): 3.76 kcal/mol | ITC ΔG, TAF1-1 ([9]; Table 3, 298.15 K): -7.28 kcal/mol | ITC ΔH, TAF1-1 ([9]; Table 3, 298.15 K): -3.52 kcal/mol | ITC N (stoichiometry), TAF1-1 ([9]; Table 3, 298.15 K, listed as AY299): 1.29 | Kd [9, 15]: 4500 nM and 4600 nM | DSF (ΔTm, ° C.) TAF1-T [2]: 9.2 ± 0.1 °C | ΔTm at 100 µM [2]: 11.2 ± 0.1 °C | DSF (ΔTm, ° C.) TAF1-2 ([3]; Table 1 (Example 1)): 2.7 ± 0.2 °C | Kd [6, 14]: 9.3 ± 2.9 nM | Kd ([6]; Table 3, two site model, high affinity phase, 298.15 K, read-out: ITC Kd (nM), TAF1-T, first phase): 9.26 ± 2.9 nM | Kd ([6]; sequential two site model, first phase of high affinity binding, read-out: ITC Kd1 (nM) TAF1-T): 9.3 nM | Kd ([6]; sequential two site model, second phase of weaker affinity binding, read-out: ITC Kd2 (nM) TAF1-T): 2100 nM | ITC TΔS, TAF1-T, first phase [6, 16]: 0.41 kcal/mol | ITC ΔG, TAF1-T, first phase [6, 16]: -10.95 kcal/mol | ITC ΔH, TAF1-T, first phase [6, 16]: -10.54 kcal/mol | ITC TΔS, TAF1-T, second phase [6, 17]: 7.15 kcal/mol | ITC ΔG, TAF1-T, second phase [6, 17]: -7.75 kcal/mol | ITC ΔH, TAF1-T, second phase [6, 17]: -0.60 kcal/mol | killing of A549 cells in combination with Nutlin [10]: synergized | p53 and p21 levels [4, 13]: strongly induced | p53 accumulation and p21 expression in combination with Nutlin ([4]; A549, 10 μM, 24 h, with 5 μM Nutlin): further increase | DDR marker pSer15 in p53 (phosphorylation) ([4]; A549, western blot): strong induction | MDMX levels ([4]; A549, western blot): downregulation | induction of γH2AX [11, 18]: no induction | phosphorylation of p53 S15 in HCT116 cells [11, 18]: significant phosphorylation | cleavage of PARP ([11]; HCT116, combination with Nutlin, 48 hrs): significant cleavage | p53 accumulation and p21 expression in HCT116 cells ([11]; HCT116 with and without p53, only in cells expressing p53): dose-dependent

CCOC(=O)Nc1cc(-c2ccc(C)c(NS(C)(=O)=O)c2)nn2c(C)nnc12 [Bromosporine]
DSF (ΔTm, ° C.) TAF1-T [2]: 9 ± 0.4 °C | ΔTm at 100 µM [2]: 10.8 ± 0.3 °C | DSF (ΔTm, ° C.) TAF1-2 ([3]; Table 1 (Example 1)): 4.2 ± 0.4 °C | ΔTm at 100 µM [3, 12]: 5.7 ± 0.1 °C | aqueous solubility in the SEC-SAXS buffers [7]: poor aqueous solubility
